The values below come from US9861703B2 (Jinan Platinum Pharmatech Co. Ltd., priority 2013, dated 2018).

The subject of series [1] is clear-cell ovarian carcinoma cell line ES-2. The series is described as follows: MTT proliferation inhibition, ES-2. Format: cell-based. Conditions: for EC50: 48 h. The procedure:
(§1) Human leukemia cell line K562, clear-cell ovarian carcinoma cell line ES-2, human prostate cancer cell line PC-3, human breast cancer cell line MCF-7, cell line Hela, human liver cancer cell line H7402 and human ovarian cancer cell line 3-AO were transferred into a culture flask and were cultured in a medium at 37° C. in a 5% CO2 and saturation humidity. One bottle of cells in logarithmic growth phase was picked out and was blew and beaten to be uniform with a pipette, then took some cell suspension solution to prepare blood counting plate smear to count cells under inverted microscope, and then adjusted the cell number to be 1×10^5/mL by adding some culture medium. Cells were seeded on a 96-well plate on which also drug tests performed. Blank control group, negative control group, positive control group and drug test group were established on the plate while the surrounding wells of the plate were not used (but filled with sterile PBS), wherein the blank control groups were prepared by addition of culture medium 150 μL per well, the negative control groups were prepared by addition of cell suspension solution 100 μL per well and culture medium 50 μL per well, the positive control groups were prepared by addition of cell suspension solution 100 μL per well and positive control drug solution 50 μL per well, the drug test groups were prepared by addition of cell suspension solution 100 μL per well and test compound solution 50 μL per well, and there were 5 different concentrations of drug in the positive control group and the drug test group respectively: 0.01, 0.1, 1, 10, 100 μmol·L^−1, each concentration was established with 3 parallel wells. After the drug was added, the 96-well plate was incubated for 48 h at 37° C. in a CO2 incubator of 5% CO2 and saturation humidity. Upon completion of the incubation, 20 μL MTT solution (concentration was 5 mg/mL) was added to each well and incubated for an additional 4 h, and after the 96-well plate was centrifuged at 2000 rpm for 30 min, medium of each well was suck out carefully and removed and 100 μL DMSO was added instead, followed by vibrating on a tablet shaker for 15 min to re-dissolve formazan crystals completely. OD value of each well was measured at 570 nm wavelength using an enzyme-linked immunosorbent assay reader to calculate cellular proliferation inhibitory ratio of each drug in different concentrations. And half-inhibitory concentration (IC50) was calculated using statistical software SPSS 16.0, wherein the cellular proliferation inhibitory ratio can be calculated as following equation: […]

Series [2] concerns H22 tumor cells. The series is described as follows: Activities of compounds in H22 tumor cells bearing Kunming mice models (Example 34). Conditions: for anti-tumor growth activity: FIGS. 11-14; for Number of mice alive: 8 mice; for Tumor growth inhibition (%) / Tumor weight: after two cycles.
Protocol: The ascites was extracted from H22 tumour bearing mice with well growth, followed by adding sterile PBS to dilute the ascites to a concentration of 8.5×10^7 cells/mL. 100 uL of the cells solution was suck up by a 1 mL sterile injector to inoculate into right oxter of mice. After 3 days, the mice were weighted and randomized to several groups (almost 8 mice per group, and a bit more in control group). These mice were administrated a predetermined dosage by intravenous or oral gavage with two days off when having administrated for 5 days until two cycles one of which had 7 days. The body weight of mouse was recorded at the beginning and ending of every cycle,
After being administrated for two cycles, the mice were weighted and recorded, then sacrificed by cervical dislocation to get lung, liver and spleen weighted respectively.
Overall difference was calculated by the function of one-way analysis of variance (One-Way ANOVA) in Origin 7.5 software; and t-test was used for pair-comparison between drug administrated group and blank group, and the inhibitory ratio of drug in each group was calculated based on the following equation: inhibitory ratio (100%)=(mean tumor weight of control group−mean tumor weight of drug administrated group)/mean tumor weight of control group×100.
The subject of series [3] is 7 cell lines (ES-2, K562, PC-3, MCF-7, Hela, H7402, 3-AO). The experiment in a line: MTT proliferation inhibition, all 7 tumor cell lines (summary in words). Format: cell-based. As to the method:
as §1

The subject of series [4] is human liver cancer cell line H7402. The experiment in a line: MTT proliferation inhibition, H7402. In kind it is cell-based. Conditions: 48 h. As to the method:
as §1

Series [5] addresses T1, Aminopeptidase N (Sus scrofa, UniProt P15145).
T1 construct: purchased Sigma
T1 sequence (P15145 1-963): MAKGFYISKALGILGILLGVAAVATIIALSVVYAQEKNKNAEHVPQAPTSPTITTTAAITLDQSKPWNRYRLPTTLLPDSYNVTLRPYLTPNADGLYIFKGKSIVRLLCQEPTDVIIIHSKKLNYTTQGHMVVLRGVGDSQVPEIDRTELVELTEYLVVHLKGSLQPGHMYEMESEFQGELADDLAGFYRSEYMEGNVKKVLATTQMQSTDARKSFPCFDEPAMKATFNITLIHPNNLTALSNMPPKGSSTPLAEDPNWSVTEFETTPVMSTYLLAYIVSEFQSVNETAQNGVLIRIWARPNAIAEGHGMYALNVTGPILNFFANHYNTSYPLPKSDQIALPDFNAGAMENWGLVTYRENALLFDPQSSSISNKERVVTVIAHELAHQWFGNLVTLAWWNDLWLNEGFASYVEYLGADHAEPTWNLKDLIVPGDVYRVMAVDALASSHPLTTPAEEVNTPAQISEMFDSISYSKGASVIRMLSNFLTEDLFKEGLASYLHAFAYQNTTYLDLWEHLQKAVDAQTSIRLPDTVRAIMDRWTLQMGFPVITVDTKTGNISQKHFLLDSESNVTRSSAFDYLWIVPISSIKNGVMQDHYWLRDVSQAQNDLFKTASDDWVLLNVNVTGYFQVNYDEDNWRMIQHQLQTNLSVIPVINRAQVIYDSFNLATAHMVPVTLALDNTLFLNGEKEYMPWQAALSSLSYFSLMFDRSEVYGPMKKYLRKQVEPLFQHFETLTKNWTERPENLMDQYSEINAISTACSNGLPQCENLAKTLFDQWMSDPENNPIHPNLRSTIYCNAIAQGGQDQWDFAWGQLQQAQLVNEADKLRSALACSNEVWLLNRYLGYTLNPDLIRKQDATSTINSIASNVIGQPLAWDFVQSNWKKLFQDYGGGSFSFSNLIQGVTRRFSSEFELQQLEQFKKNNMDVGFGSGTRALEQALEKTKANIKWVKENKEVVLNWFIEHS
The experiment in a line: Inhibition activity against enzyme in vitro (aminopeptidase N, L-Leu-p-nitroanilide substrate). In kind it is biochemical. Conditions: for IC50: 37° C., 0.5 h, absorbance 405 nm, PBS pH 7.2, read-out: IC50(μM) APN. The procedure:
Aminopeptidase N and L-Leu-p-nitroanilide as substrate were purchased from Sigma cooperation.
Preparation of Buffer Solution: 12.89 g Na2HPO4.12H2O and 2.18 g NaH2PO4.2H2O were dissolved in a 1000 mL volumetric flask, then the mixture was diluted to 1000 mL with fresh distilled water to obtain 50 mM Phosphate Buffer solution (PBS, pH 7.2), which was kept at room temperature to spare.
Aminopeptidase N was dissolved in the buffer solution to obtain 0.1 IU/mL solution.
The substrate was dissolved in DMSO to obtain a […] solution, which was kept in refrigerator to spare.
The aminopeptidase N solution 10 μL, the substrate solution 5 μL and compound with different concentration 40 μL were added into a 96-well cell plate, and then adjusted to 200 μL with phosphate buffer saline solution (pH 7.2). […] And the substrate solution 5 μL of blank group was adjusted to 200 μL with buffer solution. The mixture was incubated at 37° C. for 0.5 h, and absorbance was then determined at 405 nm wavelength Inhibitory ratio can be calculated as follows: […]
According to concentration of compound and corresponding inhibitory ratio, the IC50 value was calculated by using a fitting curve of Origin 7.5 software.

[6] abbreviates: intravenous injection, 55 mg/kg/d (0.1 mmol/kg/d) (by order of dosage table).
The mark [7] stands for this setting: intravenous injection, 79 mg/kg/d (0.15 mmol/kg/d) (by order of dosage table).
[8] abbreviates: oral gavage, 130 mg/kg/d ([…]) per dosage table, group printed *BC-02(70).
The mark [9] stands for this setting: intravenous injection, 50 mg/kg/d (0.1 mmol/kg/d).
Setting [10] is: oral gavage, 120 mg/kg/d ([…]) per dosage table, group printed *BC-01(50).

Usually EC50 stands for the concentration giving half of the maximal effect. A low value points to an effect from little substance. As a reminder, the IC50 is the midpoint of a concentration-inhibition curve. Regarding `CC(C)C[C@H](NC(=O)[C@@H](O)[C@H](N)Cc1ccccc1)C(=O)NCC(=O)OCn1cc(F)c(=O)[nH]c1=O.Cl` [BC-02, (5-fluoro-2,4-dioxo-3,4-dihydropyrimidinyl-1(2H))methyl-2-((S)-2-((2S,3R)-3-amino-2-hydroxy-4-phenylbutanamido)-4-methylpentanamido)acetate hydrochloride], in series [1], the “proliferation inhibition activity against ES-2” value is listed as “great proliferation inhibition activity” and the response was half-maximal at 1.34 µM (EC50). Besides, in series [2] (0.15 mmol/kg/d, intravenous), the “tumor appearance until the end of the experiment” value is “no tumor appeared”. Also, in series [2], the “anti-tumor growth activity” value was “excellent anti-tumor growth activity”. Also, in series [2] (setting [6]), the “Number of mice alive” value stood at 7, the “Tumor growth inhibition (%)” value was 89.52%, the “Tumor weight” value was found to be 0.06 ± 0.11 g and the “Body weight(g) Beginning” value turned out to be 25.67 ± 2.62 g. Besides, the “Body weight(g) Ending” value in series [2] (setting [6]) is recorded as 28.35 ± 3.71 g. In series [2] (setting [7]), the “Number of mice alive” value stood at 7, the “Tumor growth inhibition (%)” value was 100%, the “Tumor weight” value came out at 0.0 ± 0.0 g and the “Body weight(g) Beginning” value amounted to 30.32 ± 4.42 g. Also, the “Body weight(g) Ending” value in series [2] (setting [7]) was determined as 31.13 ± 3.55 g. In series [2] (setting [8]), the “Number of mice alive” value is on record as 7, the “Tumor growth inhibition (%)” value worked out at 89.76%, the “Tumor weight” value was found to be 0.06 ± 0.11 g and the “Body weight(g) Beginning” value is 27.98 ± 3.73 g. In addition, in series [2] (setting [8]), the “Body weight(g) Ending” value turned out to be 27.49 ± 4.94 g. In series [3], the “anti-proliferation effect against all the tumor cells” value is listed as “obvious anti-proliferation effect”. In addition, in series [4], the EC50 worked out at 11 µM. In series [5], the “inhibitory activity against aminopeptidase N compared with positive control ubenimex” value is given as “much more potent than the positive control drug ubenimex” and the half-maximal inhibitory concentration (IC50) is 0.38 µM.
For the compound `CC(C)C[C@H](NC(=O)[C@@H](O)[C@H](N)Cc1ccccc1)C(=O)OCn1cc(F)c(=O)[nH]c1=O.Cl` [BC-01, (S)-(5-fluoro-2,4-dioxo-3,4-dihydropyrimidinyl-1(2H))methyl-2-((2S,3R)-3-(amino)-2-hydroxy-4-phenylbutyryl)-4-methylpentanoate hydrochloride], in series [1], the EC50 was determined as 2.53 µM. The “anti-tumor growth activity” value in series [2] is given as “excellent anti-tumor growth activity”. The “Number of mice alive” value in series [2] (intravenous injection, 50 mg/kg/d (0.1 mmol/kg/d), two cycles) is listed as 8. Besides, in series [2] (setting [9]), the “Tumor growth inhibition (%)” value is on record as 84.38%, the “Tumor weight” value was determined as 0.09 ± 0.14 g, the “Body weight(g) Beginning” value is given as 31.52 ± 3.63 g and the “Body weight(g) Ending” value turned out to be 31.78 ± 5.76 g. In series [2] (setting [10]), the “Number of mice alive” value is listed as 7, the “Tumor growth inhibition (%)” value turned out to be 79.52%, the “Tumor weight” value was 0.12 ± 0.16 g and the “Body weight(g) Beginning” value was determined as 27.87 ± 2.55 g. Also, in series [2] (setting [10]), the “Body weight(g) Ending” value was 29.50 ± 2.15 g. In series [3], the “anti-proliferation effect against all the tumor cells” value is “obvious anti-proliferation effect”. Further, in series [4], the EC50 is 1.86 µM. Also, in series [5], the “inhibitory activity against aminopeptidase N compared with positive control ubenimex” value is “comparable activity with ubenimex” and the IC50 came out at 6.98 µM.
